For 16 compounds, IC50 and Ki results are on record in US6541467B1, “Thrombin inhibitors having a lactam at P3” (Corvas International, Inc., priority 2000, dated 2003).

Type in all cases: biochemical
Assay [1] addresses T1, bovine pancreatic trypsin (Bos taurus, UniProt P00760).
T1 sequence (P00760 24-246): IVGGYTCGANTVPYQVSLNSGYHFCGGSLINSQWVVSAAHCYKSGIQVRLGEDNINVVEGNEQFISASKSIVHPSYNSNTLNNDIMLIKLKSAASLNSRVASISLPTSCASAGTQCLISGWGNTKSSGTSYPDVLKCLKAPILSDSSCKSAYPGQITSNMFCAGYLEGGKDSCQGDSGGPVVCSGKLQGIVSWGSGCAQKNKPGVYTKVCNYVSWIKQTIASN
In words: Trypsin chromogenic enzyme assay. Here is the method:
(§1) The ability of compounds of the present invention to act as a selective inhibitor of thrombin activity was assessed by determining the concentration of test-compound which inhibited the activity of this enzyme by 50%, (IC50), and comparing this value to that determined for all or some of the following related serine proteases: recombinant tissue plasminogen activator (rt-PA), plasmin, activated protein C, chymotrypsin, factor Xa and trypsin.
(§2) The buffer used for all assays was HBSA (10 mM HEPES, pH 7.5, 150 mM sodium chloride, 0.1% bovine serum albumin).
(§3) The assay for IC50 determinations was conducted by combining in appropriate wells of a Corning microtiter plate, 50 microliters of HBSA, 50 microliters of the test compound at a specified concentration (covering a broad concentration range) diluted in HBSA (or HBSA alone for V0 (uninhibited velocity) measurement), and 50 microliters of the enzyme diluted in HBSA. Following a 30 minute incubation at ambient temperature, 50 microliters of the substrate at the concentrations specified below were added to the wells, yielding a final total volume of 200 microliters. The initial velocity of chromogenic substrate hydrolysis was measured by the change in absorbance at 405 nm using a Thermo Max® Kinetic Microplate Reader over a 5 minute period in which less than 5% of the added substrate was utilized. The concentration of added inhibitor which caused a 50% decrease in the initial rate of hydrolysis was defined as the IC50 value.
Trypsin catalytic activity was determined using the chromogenic substrate, S-2222 (benzoyl-L-isoleucine-L-glutamic acid-[gamma-methyl ester]-L-arginine-p-nitroanilide), which was obtained from DiaPharma Group. […] Purified (3×-crystallized; TRL3) bovine pancreatic trypsin was obtained from Worthington Biochemical Corp. The enzyme was reconstituted in deionized water and diluted into HBSA prior to assay in which the final concentration was 0.5 nM.

In the next assay the target is T2, Factor Xa (Homo sapiens, UniProt P00742).
T2 construct: purchased Enzyme Research Laboratories, Inc. (South Bend, Ind.)
T2 sequence (P00742 235-488 limits assumed): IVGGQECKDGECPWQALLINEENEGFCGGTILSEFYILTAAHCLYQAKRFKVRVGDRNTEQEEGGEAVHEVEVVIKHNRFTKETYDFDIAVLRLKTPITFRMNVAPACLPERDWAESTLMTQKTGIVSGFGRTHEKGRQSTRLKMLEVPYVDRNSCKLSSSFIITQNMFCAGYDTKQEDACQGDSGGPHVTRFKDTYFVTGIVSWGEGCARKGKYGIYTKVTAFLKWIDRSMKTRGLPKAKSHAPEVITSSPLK
T2 sequence (P00742 41-179 partner limits assumed): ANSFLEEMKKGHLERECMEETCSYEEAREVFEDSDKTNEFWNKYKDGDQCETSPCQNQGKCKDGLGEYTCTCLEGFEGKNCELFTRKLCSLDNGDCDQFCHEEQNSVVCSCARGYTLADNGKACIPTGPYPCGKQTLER
In words: Factor Xa chromogenic enzyme assay. As to conditions: read-out: fXa IC50. Here is the method:
as §1, §2, §3
Factor Xa catalytic activity was determined using the chromogenic substrate S-2765 (N-benzyloxycarbonyl-D-arginine-L-glycine-L-arginine-p-nitroaniline), obtained from DiaPharma Group (Franklin, Ohio). All substrates were reconstituted in deionized water prior to use. […] Purified human Factor X was obtained from Enzyme Research Laboratories, Inc. (South Bend, Ind.) and Factor Xa (FXa) was activated and prepared from it as described [Bock, P. E., Craig, P. A., Olson, S. T., and Singh, P. Arch. Biochem. Biophys. 273:375-388 (1989)]. The enzyme was diluted into HBSA prior to assay in which the final concentration was 0.25 nM.

A further assay deals with T3, human α-thrombin (Homo sapiens, UniProt P00734).
T3 construct: Purified human α-thrombin; purchased Enzyme Research Laboratories, Inc
The experiment in a line: Thrombin (fIIa) chromogenic enzyme assay. To be noted: for IC50: 0 min. Here is the method: For screening compounds using these assays, the compounds of the present invention are dissolved in buffer to give solutions containing concentrations such that assay concentrations range from 0 to 100 micromolar. In the assays for thrombin, plasmin, t-PA, aPC, chymotrypsin, and trypsin, a chromogenic synthetic substrate is added to a solution containing test compound and the enzyme of interest and the residual catalytic activity of that enzyme is determined spectrophometrically. The IC50 of a compound of the present invention is determined from the rate of substrate turnover caused by the specific enzyme being measured. IC50 is the concentration of test compound which gives 50% inhibition of the rate of substrate turnover. Likewise, the Ki of a compound of the present invention is determined from the rate of substrate turnover caused by the specific enzyme being measured at various […] concentrations. Example A provides exemplars of in vitro assays used to select the compounds of the present invention.
as §1, §2
as §3, with “Following a 30 minute incubation at ambient temperature, 50 microliters of the substrate at the concentrations specified below were added to the wells, yielding a final total volume of 200 microliters.” left out
Enzyme activity was determined using the chromogenic substrate, Pefachrome t-PA (CH3SO2-D-hexahydrotyrosine-glycyl-L-Arginine-p-nitroaniline, obtained from Pentapharm Ltd.). The substrate was reconstituted in deionized water prior to use. Purified human α-thrombin was obtained from Enzyme Research Laboratories, Inc. The buffer used for all assays was HBSA (10 mM HEPES, pH 7.5, 150 mM sodium chloride, 0.1% bovine serum albumin).
The initial velocity of Pefachrome t-PA hydrolysis was measured by the change in absorbance at 405 nm using a Thermo Max® Kinetic Microplate Reader over a 5 minute period in which less than 5% of the added substrate was utilized. The concentration of:added inhibitor which caused a 50% decrease in the initial rate of hydrolysis was defined as the IC50 value.

For a further assay, the target named is T4, human plasmin (Homo sapiens, UniProt P00747).
T4 construct: Purified human plasmin; purchased Enzyme Research Laboratories, Inc
T4 sequence (P00747 581-810 limits assumed): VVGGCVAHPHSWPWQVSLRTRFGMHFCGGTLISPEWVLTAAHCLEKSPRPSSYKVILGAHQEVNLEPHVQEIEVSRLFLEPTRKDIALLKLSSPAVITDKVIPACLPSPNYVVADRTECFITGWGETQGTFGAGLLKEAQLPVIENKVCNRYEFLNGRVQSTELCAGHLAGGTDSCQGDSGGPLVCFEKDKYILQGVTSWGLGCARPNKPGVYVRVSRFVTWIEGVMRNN
T4 sequence (P00747 97-580 partner limits assumed): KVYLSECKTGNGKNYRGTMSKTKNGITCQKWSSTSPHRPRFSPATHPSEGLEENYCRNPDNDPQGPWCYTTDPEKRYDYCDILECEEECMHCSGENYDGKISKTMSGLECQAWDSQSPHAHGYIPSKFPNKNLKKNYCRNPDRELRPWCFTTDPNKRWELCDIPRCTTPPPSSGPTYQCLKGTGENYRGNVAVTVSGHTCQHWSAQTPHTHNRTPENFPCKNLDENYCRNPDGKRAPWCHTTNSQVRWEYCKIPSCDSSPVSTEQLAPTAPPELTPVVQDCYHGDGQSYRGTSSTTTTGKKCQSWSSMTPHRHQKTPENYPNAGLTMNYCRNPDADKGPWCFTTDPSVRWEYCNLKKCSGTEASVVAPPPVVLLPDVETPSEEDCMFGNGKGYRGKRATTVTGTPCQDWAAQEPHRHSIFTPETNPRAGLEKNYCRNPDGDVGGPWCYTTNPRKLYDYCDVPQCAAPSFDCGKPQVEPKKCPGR
The experiment in a line: Plasmin chromogenic enzyme assay. Here is the method:
as §1, §2, §3
Plasmin catalytic activity was determined using the chromogenic substrate, S-2366 [L-pyroglutamyl-L-prolyl-L-arginine-p-nitroaniline hydrochloride], which was obtained from DiaPharma group. The substrate was made up in deionized water followed by dilution in HBSA prior to the assay in which the final concentration was 300 micromolar (about 2:.5-times Km). Purified human plasmin was obtained from Enzyme Research Laboratories, Inc. The enzyme was diluted into HBSA prior to assay in which the final concentration was 1.0 nM.

Bounds are passed on as bounds.

For orientation: IC50 means the concentration needed to halve the response being measured. The Ki is the equilibrium dissociation constant of an inhibitor or competing ligand from its target. Low readings indicate tighter binding, high ones weaker binding. In the case of `N=C(N)c1ccc(CNC(=O)CN2CCCC[C@H](NS(=O)(=O)c3ccc4c(c3)CCO4)C2=O)s1` [Example 24, 3-(S)-(2,3-Dihydrobenzo[b]furanyl-5-sulfonyl)amino-1-(2-amindino-5-methylenecarboxamidomethylthiophenyl)-4,5,6,7-tetrahydroazepin-2-one], the IC50 is 100 to 300 nM in assay [1], 300 to 2500 nM at Factor Xa, no more than 100 nM at human α-thrombin and no less than 2500 nM against human plasmin. On human α-thrombin, this compound yielded a Ki of no more than 100 nM.
On to `Cc1nc(N)ccc1CNC(=O)CN1CCCC[C@H](NS(=O)(=O)c2ccc3c(c2)CCO3)C1=O` [Example 35, 3-(S)-(2,3-Dihydrobenzo[b]furanyl-5-sulfonyl)amino-1-(2-amino-6-methyl-5-methylenecarboxamidomethylpyridinyl)-4,5,6,7-tetrahydroazepin-2-one], for which the IC50 was no less than 2500 nM in assay [1], no less than 2500 nM at Factor Xa, 100 to 300 nM at human α-thrombin and no less than 2500 nM against human plasmin. Also, at human α-thrombin, the Ki is no more than 100 nM.
Take `N=C(N)N1CCC(CNC(=O)CN2CCCC[C@H](NS(=O)(=O)c3ccc4c(c3)CCO4)C2=O)CC1` [Example 36, 3-(S)-(2,3-Dihydrobenzo[b]furanyl-5-sulfonyl)amino-1-(1-amidino-4-methylenecarboxamidomethylperidinyl)-4,5,6,7-tetrahydroazepin-2-one]: the concentration for half-maximal inhibition (IC50) in assay [1] is no less than 2500 nM; at Factor Xa it was no less than 2500 nM; against human α-thrombin it was 100 to 300 nM; on human plasmin, no less than 2500 nM. Moreover, the Ki on human α-thrombin is no more than 100 nM.
As to `N/C(=N\O)c1ccc(CNC(=O)CN2CCCC[C@H](NS(=O)(=O)c3ccc4c(c3)CCO4)C2=O)cc1` [Example 37], the 50% inhibitory concentration (IC50) is 300 to 2500 nM in assay [1], no less than 2500 nM at Factor Xa, 300 to 2500 nM at human α-thrombin and no less than 2500 nM against human plasmin. Also, the Ki on human α-thrombin is 100 to 300 nM.
For `N=C(N)c1ccc(CNC(=O)CN2CCCC[C@H](NS(=O)(=O)c3ccc4c(c3)CCO4)C2=O)cc1` [Example 38], the IC50 is no more than 100 nM in assay [1], no less than 2500 nM on Factor Xa, no more than 100 nM on human α-thrombin and no less than 2500 nM against human plasmin. This compound also had a Ki on human α-thrombin of no more than 100 nM.
Regarding `N=C(N)c1ccc(CNC(=O)CN2CCCC[C@H](NS(=O)(=O)c3ccc4c(c3)CCO4)C2=O)c(F)c1` [Example 39], the IC50 in assay [1] was 100 to 300 nM; at Factor Xa, no less than 2500 nM; against human α-thrombin, 100 to 300 nM; against human plasmin, no less than 2500 nM. In addition, the Ki on human α-thrombin is no more than 100 nM.
As to `N=C(N)N1CCC(CNC(=O)CN2CCCC[C@H](NS(=O)(=O)c3ccc4ccccc4c3)C2=O)CC1` [Example 40], the IC50 (in assay [1]; at Factor Xa; against human α-thrombin; against human plasmin) was no less than 2500 nM throughout. For the same compound, at human α-thrombin, the Ki was no less than 2500 nM.
With `N=C(N)N1CCC(CNC(=O)CN2CCCC[C@H](NS(=O)(=O)c3ccccc3)C2=O)CC1` [Example 41, 3-(Benzenesulfonyl)amino-1-(1-amidino-4-methylenecarboxamido-methylpiperidinyl)-4,5,6,7-tetrahydroazepin-2-one], the IC50 in assay [1] is no less than 2500 nM; on Factor Xa, no less than 2500 nM; against human α-thrombin, 300 to 2500 nM; at human plasmin it was no less than 2500 nM. Moreover, on human α-thrombin, the Ki was no more than 100 nM.
As to `COc1ccc(OC)c(S(=O)(=O)N[C@H]2CCCCN(CC(=O)NCC3CCN(C(=N)N)CC3)C2=O)c1` [Example 42], the IC50 in assay [1] was no less than 2500 nM; at Factor Xa it was no less than 2500 nM; at human α-thrombin it was 300 to 2500 nM; against human plasmin, no less than 2500 nM. At human α-thrombin, this compound came in with a Ki of 100 to 300 nM.
Take `COc1ccc(S(=O)(=O)N[C@H]2CCCCN(CC(=O)NCC3CCN(C(=N)N)CC3)C2=O)cc1OC` [Example 43]: the IC50 in assay [1] is no less than 2500 nM; on Factor Xa it was no less than 2500 nM; against human α-thrombin, 300 to 2500 nM; on human plasmin, no less than 2500 nM. The compound also came in with a Ki on human α-thrombin of no more than 100 nM.
Consider `N=C(N)c1ccc(CNC(=O)CN2CCCC[C@H](NS(=O)(=O)c3ccc4ccccc4c3)C2=O)cc1` [Example 44], for which the IC50 is 100 to 300 nM in assay [1], no less than 2500 nM at Factor Xa, 300 to 2500 nM at human α-thrombin and no less than 2500 nM against human plasmin. The compound also displayed a Ki at human α-thrombin of 100 to 300 nM.
Take `N=C(N)c1ccc(CNC(=O)CN2CCCC[C@H](NS(=O)(=O)c3ccccc3)C2=O)cc1` [Example 45]: the IC50 is 100 to 300 nM in assay [1], no less than 2500 nM on Factor Xa, 100 to 300 nM against human α-thrombin and no less than 2500 nM at human plasmin. Besides, the Ki at human α-thrombin was no more than 100 nM.
As to `COc1ccc(OC)c(S(=O)(=O)N[C@H]2CCCCN(CC(=O)NCc3ccc(C(=N)N)cc3)C2=O)c1` [Example 46], the IC50 in assay [1] was no less than 2500 nM; on Factor Xa it was no less than 2500 nM; against human α-thrombin it was no more than 100 nM; on human plasmin it was no less than 2500 nM. Further, the Ki at human α-thrombin was no more than 100 nM.
With `COc1ccc(S(=O)(=O)N[C@H]2CCCCN(CC(=O)NCc3ccc(C(=N)N)cc3)C2=O)cc1OC` [Example 47], the IC50 in assay [1] was 100 to 300 nM; at Factor Xa, no less than 2500 nM; at human α-thrombin it was no more than 100 nM; against human plasmin it was no less than 2500 nM. Besides, the Ki on human α-thrombin was no more than 100 nM.
Consider `N[C@H]1CC[C@H](CNC(=O)CN2CCCC[C@H](NS(=O)(=O)c3ccc4c(c3)CCO4)C2=O)CC1` [Example 48], for which the IC50 in assay [1] is no less than 2500 nM; at Factor Xa, no less than 2500 nM; at human α-thrombin, 300 to 2500 nM; at human plasmin, no less than 2500 nM. The same compound gave a Ki on human α-thrombin of no more than 100 nM.
For `O=C(CN1CCCC[C@H](NS(=O)(=O)c2ccc3c(c2)CCO3)C1=O)NCc1ccc2[nH]ncc2c1` [Example 49], the IC50 in assay [1] was no less than 2500 nM; at Factor Xa, no less than 2500 nM; at human α-thrombin it was 300 to 2500 nM; at human plasmin it was no less than 2500 nM. For the same compound, the inhibition constant (Ki) at human α-thrombin fell in the range of 100 to 300 nM.
